Experimental data reported in US8663646B2, “P53 peptide vaccine” (priority 2007, dated 2014).
Where no end group is shown, it is not given here.

How the values were obtained:
HLA-A*0301 [1] = molecular target: T1, HLA-A*0301 (Homo sapiens, UniProt P04439); test: Competition based cellular binding assay, HLA-A*0301 (B-cell line EKR); details: for HLA binding Affinity (Table 5): HLA type A3; for IC50 / Peptide Binding Affinity: HLA-A*0301, IC50 category; for IC50: read-out: Peptide Binding Affinity
T1 construct: B-cell lines used are: CAA (A*0101), EKR (A*0301), BVR (A*1101), VIJF (A*2401); endogenous in cells; host or cells: B-cell line EKR

HLA-A*1101 [2] = molecular target: T2, HLA-A*1101 (Homo sapiens, UniProt P04439, A114D/D185E/E176A/F33Y/L180Q/S129P/T187R); test: Competition based cellular binding assay, HLA-A*1101 (B-cell line BVR)
T2 construct: B-cell lines used are: CAA (A*0101), EKR (A*0301), BVR (A*1101), VIJF (A*2401); endogenous in cells; host or cells: B-cell line BVR

HLA-A*0301 [3] = molecular target: T1, HLA-A*0301; test: Stability of peptide-HLA complex, binding at 4° C. and 20° C., HLA-A*0301; details: for HLA binding Stability (Table 5): HLA type A3; for Peptide Binding Stability: HLA-A*0301, IC50 at 20° C. vs 4° C.
Description: (§1) Stability of other peptide-HLA complexes was preferably determined as follows. […] Peptides of >50% of the initial complexes was lost within 2 hours were considered unstable. […] The rest was designated as unstable peptide binding.
(§2) Peptides 8-11 residues in length were selected based on typical anchor residues for HLA-A*0101, A*0301, A*1101 and HLA-A*2401 (Rammensee H G et al). The capacity of peptides to bind was tested in a competition based cellular binding assay as previously described (van der Burg S H et al 1995). FL-labeled reference peptides were synthesized as Cys-derivative (van der Burg S H et al 1995). Fluorescence labeled reference peptides used were: YLEPAC(FL)AK (SEQ ID NO: 87) (HLA-A*0101) and KVFPC(FL)ALINK (SEQ ID NO: 88) (HLA-A*1101) (Sette A et al), KVFPC(FL)ALINK (SEQ ID NO: 89) (HLAA*0301) (van der Burg S H et al 1995) and RYLKC(FL)QQLL (SEQ ID NO: 90) (A*2401) (Dai L C et al). B-cell lines used are: CAA (A*0101), EKR (A*0301), BVR (A*1101), VIJF (A*2401). The relative binding capacity of the peptides is expressed as the peptide concentration to inhibit 50% (1050) of the binding of the reference peptide. […] Peptide stabilization for HLA-A*0201 was performed as previously described (van der Burg S H et al, 1996). Peptides of >50% of the initial complexes was lost within 2 hours were considered unstable. Stability of other peptide-HLA complexes was determined as follows. Peptide binding was performed at 4° C. and 20° C. and 1050 were determined. […] The rest was designated as unstable peptide binding.

HLA-A*1101 [4] = molecular target: T2, HLA-A*1101; test: Stability of peptide-HLA complex, binding at 4° C. and 20° C., HLA-A*1101; details: for Peptide Binding Stability: HLA-A*1101, IC50 at 20° C. vs 4° C.
Description: as §1, §2

[5] = molecular target: T3, 20S immuno-proteasomes from mouse B-cell line (RMA) (Mus musculus, UniProt O35955+P28063+P28076); test: In vitro proteasome mediated digestion of 30-mers, mass spectrometry, immunoproteasome RMA; format: biochemical; details: 30 residue long precursor peptides
T3 construct: 20S immuno-proteasomes were purified from a mouse B-cell line (RMA); endogenous in cells; host or cells: RMA cells; 20S proteasome purified from them
Description: (§3) In the context of the invention, “being inefficiently processed by a proteasome” preferably means that within the first hour of digestion by a proteasome less than 1% of total digested peptide is found. The processing by a proteasome is preferably assessed by incubating a purified proteasome, more preferably a human proteasome with a peptide comprising the potential CTL epitope (30 amino acid length approximately) in a proteasome digestion buffer during at least one hour at 37° C. The reaction is subsequently stopped by adding trifluoroacetic acid. Analysis of the digested peptides is performed with electrospray ionization mass spectrometry (see example 1). Even more preferably, the human proteasome is an immunoproteasome from B-LCL JY cells (Kessler J H et al. 2001).
(§4) 20S immuno-proteasomes were purified from a mouse B-cell line (RMA) and a human B-LCL cell line (JY) and 20S household proteasomes were purified from human tumor cell line (HeLa) as described (Kessler J H et al 2001). To assess kinetics, digestions were performed with different incubation periods as indicated. Briefly, peptides containing the (potential) CTL epitopes (30 mers, 20 μg) were incubated with 1 μg of purified proteasome at 37° C. for 1 h, 4 h and 24 h in 300 μl proteasome digestion buffer, trifluoroacetic acid (30 μl) was added to stop the digestion and samples were stored at −20° C. before mass spectrometric analysis. Electrospray ionization mass spectrometry was performed on a hybrid quadrupole time-of-flight mass spectromter, a Q-TOF (Micromass), equipped with an on-line nanoelectrospray interface with an approximate flow rate of […] as described (Kessler J H et al 2001). The peaks in the mass spectrum were searched in the digested precursor peptide using the Biolynx/proteins software (Micromass) supplied with the mass spectrometer. The intensity of the peaks in the mass spectra was used to establish the relative amounts of peptides generated after proteasome digestion. The relative amounts of the peptides are given as a percentage of the total amount of peptide digested by the proteasome at the indicated incubation time. Major cleavage sites are defined as more than >1% of total digested peptide within the first hour.

[6] = molecular target: T4, 20S immuno-proteasomes from human B-LCL cell line (JY) (Homo sapiens, UniProt P28062+P28065+P40306); test: In vitro proteasome mediated digestion of 30-mers, mass spectrometry, immunoproteasome JY; format: biochemical; details: 30 residue long precursor peptides
T4 construct: purified from a mouse B-cell line (RMA) and a human B-LCL cell line (JY); endogenous in cells; host or cells: B-LCL JY cells; 20S proteasome purified from them
Description: as §3, §4

[7] = molecular target: T5, 20S household proteasomes from human tumor cell line (HeLa) (Homo sapiens, UniProt P28072+P28074+Q99436); test: In vitro proteasome mediated digestion of 30-mers, mass spectrometry, household proteasome HeLa; format: biochemical; details: 30 residue long precursor peptides
T5 construct: 20S household proteasomes were purified from human tumor cell line (HeLa); endogenous in cells; host or cells: HeLa cells; 20S proteasome purified from them
Description: as §3, §4

Compound	HLA binding Affinity (Table 5) (HLA-A*0301 [1])	IC50 (HLA-A*0301 [1]) [µM]	HLA binding Affinity (Table 5) (HLA-A*1101 [2]; HLA type A11)	IC50 (HLA-A*1101 [2]; HLA-A*1101, IC50 category, read-out: Peptide Binding Affinity) [µM]	HLA binding Stability (Table 5) (HLA-A*0301 [3])	Peptide Binding Stability (HLA-A*0301 [3])	HLA binding Stability (Table 5) (HLA-A*1101 [4]; HLA type A11)	Peptide Binding Stability (HLA-A*1101 [4])	Proteasomal Cleavage of C-terminus, IP (RMA) [5]	Proteasomal Cleavage of C-terminus, IP (JY) [6]	Peptide Binding Affinity (HLA-A*0301 [1])	Peptide Binding Affinity (HLA-A*1101 [2]; HLA-A*1101, IC50 category)	Proteasomal Cleavage of C-terminus, HH (HeLa) [7]
GFLHSGTAK [p53 112-120]	int	5 to 15	int	5 to 15	− (The rest was designated as unstable peptide binding.)	− (The rest was designated as unstable peptide binding.)	− (The rest was designated as unstable peptide binding.)	− (The rest was designated as unstable peptide binding.)	+ (Major cleavage sites are defined as more than >1% of total digested peptide within the first hour)	+ (Major cleavage sites are defined as more than >1% of total digested peptide within the first hour)	–	–	–
LGFLHSGTAK [p53 111-120]	high	–	–	–	+/− (Peptides that displayed IC50 at 20 °C of more than twice the IC50 at 4 °C but IC50 < 15 μM were considered to bind with intermediate stability.)	+/− (Peptides that displayed IC50 at 20 °C of more than twice the IC50 at 4 °C but IC50 < 15 μM were considered to bind with intermediate stability.)	–	+ (Stable peptides displayed IC50 at 20 °C that deviated <2 times of the IC50 at 4° C.)	+ (Major cleavage sites are defined as more than >1% of total digested peptide within the first hour)	+ (Major cleavage sites are defined as more than >1% of total digested peptide within the first hour)	high	high	–
CC[C@H](C)[C@H](NC(=O)[C@@H](NC(=O)[C@@H](NC(=O)[C@H](CS)NC(=O)[C@H](CC(=O)O)NC(=O)[C@H](CO)NC(=O)CN)[C@@H](C)O)[C@@H](C)O)C(=O)N[C@@H](Cc1c[nH]cn1)C(=O)N[C@@H](Cc1ccc(O)cc1)C(=O)O [p53 226-234]	–	–	–	–	–	–	–	–	+ (Major cleavage sites are defined as more than >1% of total digested peptide within the first hour)	–	–	–	+ (Major cleavage sites are defined as more than >1% of total digested peptide within the first hour)
CC(C)C[C@H](NC(=O)[C@@H](NC(=O)[C@H](CC(N)=O)NC(=O)[C@H](CC(N)=O)NC(=O)[C@H](CCC(=O)O)NC(=O)[C@@H]1CCCN1C(=O)[C@H](CC(C)C)NC(=O)[C@H](CC(C)C)NC(=O)[C@@H](N)CCCCN)C(C)C)C(=O)O [p53 24-32]	–	–	–	–	–	–	–	–	+ (Major cleavage sites are defined as more than >1% of total digested peptide within the first hour)	+ (Major cleavage sites are defined as more than >1% of total digested peptide within the first hour)	–	–	+ (Major cleavage sites are defined as more than >1% of total digested peptide within the first hour)
KGQSTSRHK [p53 373-381]	int	5 to 15	–	–	− (The rest was designated as unstable peptide binding.)	+/− (Peptides that displayed IC50 at 20 °C of more than twice the IC50 at 4 °C but IC50 < 15 μM were considered to bind with intermediate stability.)	–	–	+ (Major cleavage sites are defined as more than >1% of total digested peptide within the first hour)	+ (Major cleavage sites are defined as more than >1% of total digested peptide within the first hour)	–	–	+ (Major cleavage sites are defined as more than >1% of total digested peptide within the first hour)
CSCC[C@H](NC(=O)[C@@H](N)CCCCN)C(=O)N[C@@H](Cc1ccccc1)C(=O)N[C@@H](CS)C(=O)N[C@@H](CCC(N)=O)C(=O)N[C@@H](CC(C)C)C(=O)N[C@@H](C)C(=O)N[C@@H](CCCCN)C(=O)O [p53 132-139]	–	–	–	–	–	+ (Stable peptides displayed IC50 at 20 °C that deviated <2 times of the IC50 at 4° C.)	–	+ (Stable peptides displayed IC50 at 20 °C that deviated <2 times of the IC50 at 4° C.)	+ (Major cleavage sites are defined as more than >1% of total digested peptide within the first hour)	+ (Major cleavage sites are defined as more than >1% of total digested peptide within the first hour)	high	high	+ (Major cleavage sites are defined as more than >1% of total digested peptide within the first hour)
CSCC[C@H](NC(=O)[C@H](CCCCN)NC(=O)[C@H](CC(N)=O)NC(=O)[C@H](CC(C)C)NC(=O)[C@H](C)N)C(=O)N[C@@H](Cc1ccccc1)C(=O)N[C@@H](CS)C(=O)N[C@@H](CCC(N)=O)C(=O)N[C@@H](CC(C)C)C(=O)N[C@@H](C)C(=O)N[C@@H](CCCCN)C(=O)O [p53 129-139]	–	–	–	–	–	+ (Stable peptides displayed IC50 at 20 °C that deviated <2 times of the IC50 at 4° C.)	–	–	+ (Major cleavage sites are defined as more than >1% of total digested peptide within the first hour)	+ (Major cleavage sites are defined as more than >1% of total digested peptide within the first hour)	high	–	+ (Major cleavage sites are defined as more than >1% of total digested peptide within the first hour)
